Activity calls are given as the source filed them. The rule behind the calls is not given here.
Legend:
[1] = biological target: T1, Ornithine aminotransferase, mitochondrial (Homo sapiens, UniProt P04181); experiment: Inhibition of human recombinant OAT using 1 mM alpha-ketoglutarate as substrate
T1 sequence (P04181 whole entry): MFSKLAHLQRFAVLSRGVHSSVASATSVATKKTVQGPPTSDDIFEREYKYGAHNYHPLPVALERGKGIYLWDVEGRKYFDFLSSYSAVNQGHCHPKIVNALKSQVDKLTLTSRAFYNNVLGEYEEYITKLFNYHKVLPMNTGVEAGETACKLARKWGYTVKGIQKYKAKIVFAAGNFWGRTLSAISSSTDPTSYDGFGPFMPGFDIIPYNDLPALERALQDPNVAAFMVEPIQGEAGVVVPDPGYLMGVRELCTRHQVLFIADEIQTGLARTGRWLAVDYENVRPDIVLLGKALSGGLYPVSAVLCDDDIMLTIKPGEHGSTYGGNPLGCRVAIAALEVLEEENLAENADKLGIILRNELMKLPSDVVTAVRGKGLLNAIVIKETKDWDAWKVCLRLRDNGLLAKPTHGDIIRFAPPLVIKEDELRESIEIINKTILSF

Mus musculus [2] = experiment: Reduction in AFP secretion in Hep3B cells xenografted Balb/C mouse serum at 0.1 mg/kg, po administered 3 weeks after xenograft measured 21 days after treatment by ELISA; format: functional, organism-based; details: Hep 3B2
Mus musculus [3] = experiment: Reduction in AFP secretion in Hep3B cells xenografted Balb/C mouse serum at 1 mg/kg, po administered 3 weeks after xenograft measured 14 days after treatment by ELISA (reference value: 29155 pg/ml); format: functional, Hep 3B2
[4] = Antitumor activity against human Hep3B cells xenografted in Balb/C mouse assessed as tumor size at 0.1 mg/kg, po administered 3 weeks after xenograft measured 28 days after treatment (reference value: 24.2); format: functional, Hep 3B2
[5] = Antitumor activity against human Hep3B cells xenografted in Balb/C mouse assessed as tumor size at 1 mg/kg, po administered 3 weeks after xenograft measured 28 days after treatment (reference value: 24.2); format: functional, Hep 3B2
Hep 3B2 [6] = experiment: Decrease in AFP secretion in human Hep3B cells at 50 ug/ml by ELISA; format: functional, cell-based
HepG2 [7] = experiment: Decrease in AFP secretion in human HepG2 cells at 50 ug/ml by ELISA; format: functional, cell-based
Mus musculus [8] = experiment: Reduction in AFP secretion in Hep3B cells xenografted Balb/C mouse serum at 0.1 mg/kg, po administered 3 weeks after xenograft measured 14 days after treatment by ELISA (reference value: 29155 pg/ml); format: functional, Hep 3B2
[9] = biological target: Aspartate aminotransferase, cytoplasmic (Homo sapiens) (UniProt P17174); experiment: Inhibition of aspartate aminotransferase (unknown origin) at 4 mM using 5.55 mM L-aspartate as substrate
Mus musculus [10] = experiment: Reduction in AFP secretion in Hep3B cells xenografted Balb/C mouse serum at 1 mg/kg, po administered 3 weeks after xenograft measured 21 days after treatment by ELISA; format: functional, organism-based; details: Hep 3B2
Homo sapiens = organism: Homo sapiens; experiment: Inhibition of alanine aminotransferase (unknown origin) at 4 mM using 5.55 mM L-alanine as substrate
Mus musculus [11] = experiment: Reduction in AFP secretion in Hep3B cells xenografted Balb/C mouse serum at 500 ug/kg, ip administered as single dose by ELISA; format: functional, organism-based; details: Hep 3B2
Hepa1-6 = experiment: Effect AFP secretion in […] cells by ELISA; format: functional, cell-based
HepG2 [12] = experiment: Effect AFP secretion in human HepG2 cells by ELISA; format: functional, cell-based
[13] = Antiproliferative activity against human Hep3B cells after 48 hrs by [3H]-thymidine incorporation assay; format: functional, Hep 3B2
[14] = Antiproliferative activity against […] cells after 48 hrs by [3H]-thymidine incorporation assay; format: functional
Hep 3B2 [15] = experiment: Effect AFP secretion in human Hep3B cells by ELISA; format: functional, cell-based

Aspartate aminotransferase, cytoplasmic (Homo sapiens), sequence (P17174 whole entry): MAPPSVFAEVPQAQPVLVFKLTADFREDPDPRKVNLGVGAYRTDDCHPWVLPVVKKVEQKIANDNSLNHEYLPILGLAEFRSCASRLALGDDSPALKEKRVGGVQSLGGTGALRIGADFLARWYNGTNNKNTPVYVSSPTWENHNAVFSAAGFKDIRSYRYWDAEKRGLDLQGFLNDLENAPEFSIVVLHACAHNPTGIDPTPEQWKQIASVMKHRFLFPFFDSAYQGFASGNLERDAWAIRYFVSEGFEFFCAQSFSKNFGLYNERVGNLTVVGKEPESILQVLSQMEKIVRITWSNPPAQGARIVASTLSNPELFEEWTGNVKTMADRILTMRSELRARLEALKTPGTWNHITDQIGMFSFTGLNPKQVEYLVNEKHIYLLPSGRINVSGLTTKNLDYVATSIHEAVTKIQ

SMILES	Ki [1] [µM]	inhibition (Mus musculus [2])	Activity (Mus musculus [3]) [pg/mL]	fold change (FC) [4]	fold change (FC) [5]	inhibition (Hep 3B2 [6])	inhibition (HepG2 [7])	Activity (Mus musculus [8]) [pg/mL]	inhibition [9]	inhibition (Mus musculus [10])	inhibition (Homo sapiens)	inhibition (Mus musculus [11])	Activity (Hepa1-6)	Activity (HepG2 [12])	inhibition (INH) [13] [%]	inhibition (INH) [14] [%]	Activity (Hep 3B2 [15])
NC1C=CC=C(C(=O)O)C1 (stereo not drawn) [GABACULINE]	2.1																
N[C@H]1C[C@@H](C(=O)O)CC1=C(C(F)(F)F)C(F)(F)F	4.2	Active	24857	4.5	3.1	Active	Active	24857	inactive	Active	inactive						
N[C@H]1C=C(C(=O)O)CCC1 [GABACULINE]												Active	inactive	inactive	43	43	inactive

— ChEMBL document CHEMBL3621202, “Suppression of Hepatocellular Carcinoma by Inhibition of Overexpressed Ornithine Aminotransferase” (ACS Med Chem Lett, 2015)
